Results as given in patent US4510130A, “Promoting animal and plant growth with leupeptin” (Genetic Diagnostics Corporation, priority 1983, dated 1985).

Key:
pea seedlings = experiment: Pea seedling growth (height) with leupeptin in watering; assay type: in vivo; details: 10 mg leupeptin in 5 ml water per plant per day to the soil
Experimental: 20 pea seedlings 4 days after planting of seed and each containing an average of 5 leaves were divided into two matched groups. 5 ml of water per plant per day was supplied to the soil in which the control group was growing. The test group received the same 5 ml of water but 10 mg of leupeptin was dissolved therein. The lighting and other growth conditions were the same and the plant heights were measured daily. The first measurement was made on the day that the leupeptin-treated plants reached a height of about 1 cm, a practical minimum measuring height.

Syrian hamsters = experiment: Hamster growth (body weight) with daily leupeptin injection; assay type: in vivo; details: for Hamster Weight: daily injection 0.8 mg leupeptin in 1 ml saline (about 20 mg/Kg per day)
Experimental: 20 Syrian hamsters 3 weeks old and initially weighing an average of 40 grams each were subdivided into two groups. The groups were fed similarly. All animals received a daily injection of 1 ml of isotonic saline solution except that the saline solution administered to the test group had 0.8 mg of leupeptin dissolved therein, corresponding to about 20 mg/Kg per day based on the initial weight of the animals. The animals were weighed weekly and the results obtained were as follows: […]

## CC(=O)N[C@@H](CC(C)C)C(=O)N[C@@H](CC(C)C)C(=O)N[C@H](C=O)CCCNC(=N)N [Leupeptin, leupeptin]
Pea seedlings; Day 0
  Pea seedling height: 1 ± 0.2 cm
Pea seedlings; Day 1
  Pea seedling height: 1.5 ± 0.1 cm
Pea seedlings; Day 4
  Pea seedling height: 3.4 ± 0.2 cm
Pea seedlings; Day 6
  Pea seedling height: 5.2 ± 0.5 cm
Pea seedlings; Day 10
  Pea seedling height: 7.9 ± 0.5 cm
Pea seedlings; Day 12
  Pea seedling height: 9.2 ± 0.6 cm
Pea seedlings; Day 15
  Pea seedling height: 12.1 ± 0.8 cm
Syrian hamsters; Weeks 3
  Hamster Weight: 47 ± 3 grams
Syrian hamsters; Weeks 6
  Hamster Weight: 75 ± 5 grams
Syrian hamsters; Weeks 9
  Hamster Weight: 87 ± 6 grams
Syrian hamsters; Weeks 12
  Hamster Weight: 95 ± 9 grams
Syrian hamsters; Weeks 15
  Hamster Weight: 105 ± 8 grams
Syrian hamsters; Weeks 18
  Hamster Weight: 110 ± 8 grams
Syrian hamsters; Weeks 21
  Hamster Weight: 115 ± 7 grams
Syrian hamsters; Weeks 27
  Hamster Weight: 122 ± 10 grams
Syrian hamsters; Weeks 32
  Hamster Weight: 130 ± 9 grams
Syrian hamsters; at all stages of development, about 20 mg/Kg per day by injection
  Increase of hamster weight versus control: 10-15%
Syrian hamsters; muscles isolated from the treated hamsters
  Muscle mass of isolated muscles: increased weight was attributable to a corresponding muscle mass increase
